Measured values reported in patent US20260374754A1, “N-((ISOQUINOLIN-6-YL)METHYL)-1H-PYRAZOLE-4-CARBOXAMIDE DERIVATIVES AS PLASMA KALLIKREIN INHIBITORS FOR THE TREATMENT OF HEREDITARY ANGIODEMA” (Takeda Pharmaceutical Company Limited, priority 2022, published 2026).
Structures can show the parent of a compound that is named as a salt. Where two headings read alike, the source gives them in different places.

Target: human activated kallikrein enzyme (Homo sapiens, UniProt P03952)
Assay: Inhibition of human activated plasma kallikrein, fluorogenic PFR-AMC substrate, 500 pM enzyme format
Format: biochemical
Details: 300 μM PFR-AMC, 30 min preincubation, 10 min room temperature, pH 7.5
How it was run: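 500 pM activated kallikrein preincubated 30 min at room temperature with inhibitors in pH 7.5 Tris/EDTA/NaCl buffer with PEG-400 and Triton X-100. Reaction started with 300 μM PFR-AMC, run 10 min at room temperature; AMC fluorescence read at ex 380/em 460 nm.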

[1] = 500 pM activated kallikrein, read-out: Primary Dose Response Assay: Average EC50

human activated kallikrein enzyme, sequence (P03952 391-638 limits assumed): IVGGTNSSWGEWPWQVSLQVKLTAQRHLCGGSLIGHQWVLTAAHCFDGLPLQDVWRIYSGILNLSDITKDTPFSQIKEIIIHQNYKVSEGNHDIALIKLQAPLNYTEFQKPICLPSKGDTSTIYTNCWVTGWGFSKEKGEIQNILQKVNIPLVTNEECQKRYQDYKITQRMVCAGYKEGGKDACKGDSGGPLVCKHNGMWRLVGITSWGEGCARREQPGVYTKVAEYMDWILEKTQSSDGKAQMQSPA
human activated kallikrein enzyme, sequence (P03952 20-390 partner limits assumed): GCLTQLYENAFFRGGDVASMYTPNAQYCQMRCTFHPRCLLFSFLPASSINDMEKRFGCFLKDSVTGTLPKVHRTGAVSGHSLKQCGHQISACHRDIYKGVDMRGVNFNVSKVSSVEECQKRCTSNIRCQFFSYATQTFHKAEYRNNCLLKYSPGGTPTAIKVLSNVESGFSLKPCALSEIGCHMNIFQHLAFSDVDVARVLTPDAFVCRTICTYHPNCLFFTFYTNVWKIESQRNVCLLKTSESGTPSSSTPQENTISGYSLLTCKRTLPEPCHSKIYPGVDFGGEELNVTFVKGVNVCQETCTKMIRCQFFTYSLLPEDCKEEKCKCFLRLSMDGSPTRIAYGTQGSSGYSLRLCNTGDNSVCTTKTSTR

SMILES	EC50 [1] [nM]	EC50 (Primary Dose Response Assay: Average EC50, 500 pM activated kallikrein) [nM]
Cc1cc2c(N)nccc2c(C)c1CNc1cc(NCc2ccc(Oc3ccccn3)cc2)ncn1 [Example 361, N^4-((1-amino-5,7-dimethylisoquinolin-6-yl)methyl)-N^6-(4-(pyridin-2-yloxy)benzyl)pyrimidine-4,6-diamine]	1 to 10	
COc1ccccc1Cn1cc(C(=O)NCc2c(C)cc3c(N)nccc3c2C)cn1 [Example 33, N-((1-amino-5,7-dimethylisoquinolin-6-yl)methyl)-1-(2-methoxybenzyl)-1H-pyrazole-4-carboxamide]	100 to 1000	
CCCCc1cc(COc2cc(NCc3c(C)cc4c(N)nccc4c3C)ncn2)cc2cc(Cl)cnc12 [Example 402, 6-(((6-((8-butyl-3-chloroquinolin-6-yl)methoxy)pyrimidin-4-yl)amino)methyl)-5,7-dimethylisoquinolin-1-amine]	100 to 1000	
Cc1cc2c(N)nccc2c(C)c1CNc1cc(OCc2ccc(Cn3cccn3)nc2)cnn1 [Example 445, 6-(((5-((6-((1H-pyrazol-1-yl)methyl)pyridin-3-yl)methoxy)pyridazin-3-yl)amino)methyl)-5,7-dimethylisoquinolin-1-amine]	100 to 1000	
Cc1cc2c(N)nccc2c(C)c1CNc1ccnc(OCc2cn3cc(C4CC4)ccc3n2)c1 [Example 279, 6-(((2-((6-cyclopropylimidazo[1,2-a]pyridin-2-yl)methoxy)pyridin-4-yl)amino)methyl)-5,7-dimethylisoquinolin-1-amine]	1 to 10	
Cc1cc2ccnc(NC(=O)OCc3ccccc3)c2c(C)c1CNc1cc(NCc2ccc(Cn3ccccc3=O)cc2)ncn1 [Example 248, benzyl (6,8-dimethyl-7-(((6-((4-((2-oxopyridin-1(2H)-yl)methyl)benzyl)amino)pyrimidin-4-yl)amino)methyl)isoquinolin-1-yl)carbamate]	1 to 10	
Cc1cc2c(N)nccc2c(C)c1CNC(=O)c1cnn(Cc2ccccc2C2CC2)c1 [Example 118, N-((1-amino-5,7-dimethylisoquinolin-6-yl)methyl)-1-(2-cyclopropylbenzyl)-1H-pyrazole-4-carboxamide]	100 to 1000	
Cc1cc2c(N)nccc2c(C)c1CNc1cc(OCc2cn3ccccc3n2)cnn1 [Example 411, 6-(((5-(imidazo[1,2-a]pyridin-2-ylmethoxy)pyridazin-3-yl)amino)methyl)-5,7-dimethylisoquinolin-1-amine]	10 to 100	
Cc1cc2c(N)nccc2c(C)c1CNC(=O)c1cnn(Cc2ccc(CC(=O)N3C[C@@H]4[C@@H](CF)[C@@H]4C3)cc2)c1 [Example 207, N-((1-amino-5,7-dimethylisoquinolin-6-yl)methyl)-1-(4-(2-((1R,5S,6r)-6-(fluoromethyl)-3-azabicyclo[3.1.0]hexan-3-y1)-2-oxoethyl)benzyl)-1H-pyrazole-4-carboxamide]	1 to 10	
Cc1cc2c(N)nccc2c(C)c1CNC(=O)c1cnn(Cc2ccc3ccccc3c2)c1 [Example 56, N-((1-amino-5,7-dimethylisoquinolin-6-yl)methyl)-1-(naphthalen-2-ylmethyl)-1H-pyrazole-4-carboxamide]	1 to 10	
CCOC(=O)N(Cc1ccc(Cn2ccccc2=O)cc1)c1cc(NCc2c(C)cc3c(N)nccc3c2C)ncn1 [Example I-480, ethyl (6-(((1-amino-5,7-dimethylisoquinolin-6-yl)methyl)amino)pyrimidin-4-yl)(4-((2-oxopyridin-1(2H)-yl)methyl)benzyl)carbamate]	100 to 1000	
Cc1cc2c(N)nccc2c(C)c1CNC(=O)c1cnn(Cc2ccc(CC(=O)N(C)Cc3ccccc3)cc2)c1 [Example 220, N-((1-amino-5,7-dimethylisoquinolin-6-yl)methyl)-1-(4-(2-(benzyl(methyl)amino)-2-oxoethyl)benzyl)-1H-pyrazole-4-carboxamide]	1 to 10	
Cc1cc2c(N)nccc2c(C)c1CNc1nccc2c1nnn2Cc1cn2cc(C3CC3)ccc2n1 [Example 254, 6-(((1-((6-cyclopropylimidazo[1,2-a]pyridin-2-yl)methyl)-1H-[1,2,3]triazolo[4,5-c]pyridin-4-yl)amino)methyl)-5,7-dimethylisoquinolin-1-amine]	> 1000	
CCOC(=O)CCc1nc(NCc2c(C)cc3c(N)nccc3c2C)cc(OCc2cn3cc(C4CC4)ccc3n2)n1 [Example 274, ethyl 3-(4-(((1-amino-5,7-dimethylisoquinolin-6-yl)methyl)amino)-6-((6-cyclopropylimidazo[1,2-a]pyridin-2-yl)methoxy)pyrimidin-2-yl)propanoate]	1 to 10	
Cc1c(CNC(=O)c2cnn(Cc3ccccc3)c2)c(C)c2ccnc(N)c2c1C [Example 170, N-((1-amino-5,7,8-trimethylisoquinolin-6-yl)methyl)-1-benzyl-1H-pyrazole-4-carboxamide]		> 1000
Cc1ccn2cc(Cn3cc(C(=O)NCc4c(C)cc5c(N)nccc5c4C)cn3)nc2c1 [Example 103, N-((1-amino-5,7-dimethylisoquinolin-6-yl)methyl)-1-((7-methylimidazo[1,2-a]pyridin-2-yl)methyl)-1H-pyrazole-4-carboxamide]	< 1	

SMILES	EC50 [1] [nM]	EC50 (Primary Dose Response Assay: Average EC50, 500 pM activated kallikrein) [nM]
Cc1cc2c(N)nccc2c(C)c1CNC(=O)c1cc(CN)nn1Cc1ccccc1 [Example 202, N-((1-amino-5,7-dimethylisoquinolin-6-yl)methyl)-3-(aminomethyl)-1-benzyl-1H-pyrazole-5-carboxamide]	> 1000	
Cc1cc2c(N)nccc2c(C)c1CNC(=O)c1cnn(Cc2ccc(CC(=O)N3CC4C(C3)C4(F)F)cc2)c1 (stereo not shown) [Example 214, N-((1-amino-5,7-dimethylisoquinolin-6-yl)methyl)-1-(4-(2-(6,6-difluoro-3-azabicyclo[3.1.0]hexan-3-yl)-2-oxoethyl)benzyl)-1H-pyrazole-4-carboxamide]	< 1	
Cc1cc2c(N)nccc2c(C)c1CNC(=O)Nc1ncncc1OCc1cn2cc(C3CC3)ccc2n1 [Example 507, 1-((1-amino-5,7-dimethylisoquinolin-6-yl)methyl)-3-(5-((6-cyclopropylimidazo[1,2-a]pyridin-2-yl)methoxy)pyrimidin-4-yl)urea]	1 to 10	
Cc1cc2c(N)nccc2c(C)c1CNC(=O)c1cnn(Cc2ccc3cc(F)ccc3n2)c1 [Example 158, N-((1-amino-5,7-dimethylisoquinolin-6-yl)methyl)-1-((6-fluoroquinolin-2-yl)methyl)-1H-pyrazole-4-carboxamide]	1 to 10	
Cc1cc2c(N)nccc2c(C)c1CNC(=O)c1cnn(Cc2cn3cc(C4CC4(C)C)ccc3n2)c1 (stereo not shown) [Example 176, N-((1-amino-5,7-dimethylisoquinolin-6-yl)methyl)-1-((6-(2,2-dimethylcyclopropyl)imidazo[1,2-a]pyridin-2-yl)methyl)-1H-pyrazole-4-carboxamide]	1 to 10	
Cc1cc2c(N)nccc2c(C)c1CNc1cc(OCc2cc3cc(Cl)ccc3s2)cnn1 [Example 417, 6-(((5-((5-chlorobenzo[b]thiophen-2-yl)methoxy)pyridazin-3-yl)amino)methyl)-5,7-dimethylisoquinolin-1-amine, formic acid salt]	1 to 10	
Cc1cc2c(N)nccc2c(C)c1CNc1ccc2ncc(Cc3ccc4ccccc4c3)n2c1 [Example 522, 5,7-dimethyl-6-(((3-(naphthalen-2-ylmethyl)imidazo[1,2-a]pyridin-6-yl)amino)methyl)-isoquinolin-1-amine]	> 1000	
CCc1cc2c(N)nccc2c(C)c1CNC(=O)c1cnn(Cc2ccccc2)c1 [Example 173, N-((1-amino-7-ethyl-5-methylisoquinolin-6-yl)methyl)-1-benzyl-1H-pyrazole-4-carboxamide]	10 to 100	
C/C=C\c1ccc2nc(Cn3ccc(C(=O)NCc4c(C)cc5c(N)nccc5c4C)n3)cn2c1 [Example 177, (Z)-N-((1-amino-5,7-dimethylisoquinolin-6-yl)methyl)-1-((6-(prop-1-en-1-yl)imidazo[1,2-a]pyridin-2-yl)methyl)-1H-pyrazole-3-carboxamide]	< 1	
Cc1cccc(Cn2cc(C(=O)NCc3c(C)cc4c(N)nccc4c3C)cn2)c1 [Example 41, N-((1-amino-5,7-dimethylisoquinolin-6-yl)methyl)-1-(3-methylbenzyl)-1H-pyrazole-4-carboxamide]	10 to 100	
Cc1cc2c(N)nccc2c(C)c1CNc1cc(OCc2ccc(Cc3cccn(C)c3=O)cc2)ncn1 [Example 299, 3-(4-(((6-(((1-amino-5,7-dimethylisoquinolin-6-yl)methyl)amino)pyrimidin-4-yl)oxy)methyl)benzyl)-1-methylpyridin-2(1H)-one]	1 to 10	
Cc1cc2c(N)nccc2c(C)c1CNC(=O)c1cnn(Cc2ccc(CC(=O)N(C)CC3CC3)cc2)c1 [Example 204, N-((1-amino-5,7-dimethylisoquinolin-6-yl)methyl)-1-(4-(2-((cyclopropylmethyl)(methyl)amino)-2-oxoethyl)benzyl)-1H-pyrazole-4-carboxamide]	1 to 10	
Cc1cc2c(N)nccc2c(C)c1CNc1cc(NCc2ccc3ccccc3c2)ncn1 [Example 233, N4-((1-amino-5,7-dimethylisoquinolin-6-yl)methyl)-N6-(naphthalen-2-ylmethyl)pyrimidine-4,6-diamine]	10 to 100	
Cc1cc2c(N)nccc2c(C)c1CNc1nccc(OCc2cn3cc(C4CC4)ccc3n2)n1 [Example 492, 6-(((4-((6-cyclopropylimidazo[1,2-a]pyridin-2-yl)methoxy)pyrimidin-2-yl)amino)methyl)-5,7-dimethylisoquinolin-1-amine]	1 to 10	
Cc1cc2c(N)nccc2c(C)c1CNS(=O)(=O)c1cn(Cc2cn3cc(C4CC4)ccc3n2)nn1 [Example 491, N-((1-amino-5,7-dimethylisoquinolin-6-yl)methyl)-1-((6-cyclopropylimidazo[1,2-a]pyridin-2-yl)methyl)-1H-1,2,3-triazole-4-sulfonamide]	10 to 100	
